Assay results from PubChem BioAssay (NCI).
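Interpolation was linear, between the two tested concentrations surrounding the appropriate level; five concentrations were tested over 48 hours in 96-well plates. Definition used: TGI = concentration required for complete inhibition of growth.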

What was measured:
Assay in all cases: inhibition of tumour cell growth, NCI panel, 48 h
[1] = test system: HL-60(TB) leukemia
[2] = test system: NCI-H522 lung
[3] = test system: SF-295 CNS
[4] = test system: EKVX NSCLC
[5] = test system: UACC-257 melanoma
[6] = test system: M14 melanoma
[7] = test system: PC-3 prostate
[8] = test system: TK-10 renal
[9] = test system: NCI-H226 lung
[10] = test system: KM12 colon
[11] = test system: HT29 colon
[12] = test system: UO-31 renal
[13] = test system: OVCAR-8 ovarian
[14] = test system: BT-549 breast
[15] = test system: LOX IMVI melanoma
[16] = test system: HOP-62 NSCLC
[17] = test system: SN12C renal
[18] = test system: HOP-92 NSCLC
[19] = test system: SNB-19 CNS
[20] = test system: MDA-MB-231 breast
[21] = test system: OVCAR-3 ovarian
[22] = test system: SR leukemia
[23] = test system: 786-0 renal
[24] = test system: RXF 393 renal
[25] = test system: ACHN renal
[26] = test system: MALME-3M melanoma
[27] = test system: K-562 leukemia
[28] = test system: NCI/ADR-RES ovarian
[29] = test system: A498 renal
[30] = test system: T-47D breast
[31] = test system: HCT-116 colon
[32] = test system: NCI-H23 lung
[33] = test system: MOLT-4 leukemia
[34] = test system: CAKI-1 renal
[35] = test system: MDA-MB-435
[36] = test system: MCF7 breast
[37] = test system: IGROV1 ovarian
[38] = test system: SK-MEL-28 melanoma
[39] = test system: UACC-62 melanoma
[40] = test system: MDA-N
[41] = test system: HCT-15 colon
[42] = test system: COLO 205 colon
[43] = test system: RPMI-8226 leukemia
[44] = test system: OVCAR-4 ovarian
[45] = test system: SF-539 CNS
[46] = test system: SK-OV-3 ovarian
[47] = test system: SK-MEL-5 melanoma
[48] = test system: SK-MEL-2 melanoma
[49] = test system: A549 NSCLC
[50] = test system: CCRF-CEM leukemia
[51] = test system: DU-145 prostate
[52] = test system: SF-268 CNS
[53] = test system: OVCAR-5 ovarian
[54] = test system: HS 578T breast
[55] = test system: U251 CNS
[56] = test system: SW-620 colon
[57] = test system: HCC-2998 colon
[58] = test system: NCI-H460 lung
[59] = test system: SNB-75 CNS

Measured: TGI

CC1(C)CCN2C(=O)C34CCCC3CC21S4 (stereo unspecified)
not listed: [57] | [58] | [59]
> 100 µM: all other assays above

Cc1cccc(C2ON=C(c3ccccc3)N2C23CC4CC(CC(C4)C2)C3)c1 (stereo unspecified)
not listed: [12]
> 10 µM: all other assays above

COC(=O)C(CC(C)C)NC(=O)C(NC(=O)c1ccc(-c2ccc(Cl)cc2Cl)o1)C(C)C (stereo unspecified)
42.2 µM: [21]
63.2 µM: [48]
30.8 µM: [1]
52.6 µM: [3]
75.6 µM: [41]
39.2 µM: [17]
40.3 µM: [43]
56.6 µM: [52]
65.8 µM: [6]
44.7 µM: [33] | [36]
31.7 µM: [57]
46 µM: [55]
29.2 µM: [31]
33.2 µM: [50]
42.6 µM: [11]
53.1 µM: [27]
34.2 µM: [58]
84.5 µM: [8]
65.4 µM: [16]
61.2 µM: [12]
62.6 µM: [4]
30.9 µM: [15]
45.9 µM: [18]
85.6 µM: [25]
47.2 µM: [24]
58.9 µM: [10]
49.9 µM: [47]
35.3 µM: [20]
64.9 µM: [5]
55.5 µM: [2]
44.8 µM: [39]
52.2 µM: [42]
35.1 µM: [23]
74.4 µM: [51]
60.8 µM: [54]
not listed: [26] | [29]
> 100 µM: all other assays above
